In PubChem BioAssay (NCI):
Values joined by “and” are separate entries in the source; they are usually repeats but may differ in a detail not shown here. Equal values may be shown once.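 Dose response: 5 concentrations. Exposure: 48 h. Format: 96-well plates. Endpoint: linear interpolation; highest concentration if not reached. Abbreviation: GI50, concentration required for 50% inhibition of growth. TGI: total growth inhibition.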

Experiments:
Test in all cases: NCI-60 cell line screen, 48 h
NCI-H23 lung = tested on: NCI-H23 lung
NCI-H460 lung = tested on: NCI-H460 lung
CCRF-CEM leukemia = tested on: CCRF-CEM leukemia
UACC-257 melanoma = tested on: UACC-257 melanoma
RPMI-8226 leukemia = tested on: RPMI-8226 leukemia
NCI-H226 lung = tested on: NCI-H226 lung
HCC-2998 colon = tested on: HCC-2998 colon
ACHN renal = tested on: ACHN renal
MOLT-4 leukemia = tested on: MOLT-4 leukemia
MDA-MB-231 breast = tested on: MDA-MB-231 breast

SMILES | TGI (NCI-H23 lung) [µM] | TGI (NCI-H460 lung) [µM] | TGI (CCRF-CEM leukemia) [µM] | TGI (UACC-257 melanoma) [µM] | TGI (RPMI-8226 leukemia) [µM] | TGI (NCI-H226 lung) [µM] | TGI (HCC-2998 colon) [µM] | TGI (ACHN renal) [µM] | GI50 (NCI-H23 lung) [µM] | GI50 (NCI-H460 lung) [µM] | GI50 (UACC-257 melanoma) [µM] | GI50 (RPMI-8226 leukemia) [µM] | GI50 (MOLT-4 leukemia) [µM] | TGI (MOLT-4 leukemia) [µM] | GI50 (NCI-H226 lung) [µM] | GI50 (HCC-2998 colon) [µM] | GI50 (MDA-MB-231 breast) [µM] | TGI (MDA-MB-231 breast) [µM] | GI50 (ACHN renal) [µM] | GI50 (CCRF-CEM leukemia)
Cc1cccc(C)c1NC(=O)C(=O)Cc1nc2ccccc2s1 | > 100 | > 100 | > 100 | > 100 | > 100 | > 100 | > 100 | > 100 |  |  |  |  |  |  |  |  |  |  |  | 
CCC[CH2][Sn-]([CH2]CCC)([CH2]CCC)[O]C(=O)C(C)C | 0.31 | 0.197 |  | 0.265 | 0.366 | 0.34 | 0.329 | 0.273 | 0.115 | 0.0571 | 0.135 | 0.109 | 0.102 | 0.348 | 0.161 | 0.164 | 0.103 | 0.227 | 0.142 | 
COC(=O)C1CC(c2ccc(OC)c(OC)c2)OC1=O (mixture of isomers) | > 100 | > 100 | > 100 | > 100 | > 100 | > 100 | > 100 | > 100 |  |  |  |  |  | > 100 |  |  |  |  |  | 
Cc1nnc2n1N=C(c1ccccc1)C(c1ccccc1)S2 (stereo not given) | 64 | > 100 | 77.1 | > 100 | > 100 |  | > 100 | > 100 |  |  |  |  |  | > 100 |  |  |  |  |  | 
c1ccc2c(c1)[nH]c1c2nc2ccccn21 | > 100 | > 100 | > 100 | > 100 | > 100 | > 100 | > 100 | > 100 |  |  |  |  |  | > 100 |  |  |  |  |  | 48.4 µM and > 100 µM
COc1ccc(-c2ccc(CC(=O)O)cc2)cc1OC | > 100 | > 100 | > 100 | > 100 | > 100 | > 100 |  | > 100 |  |  |  |  |  | > 100 |  |  |  |  |  | 
Cn1c(=O)oc2cc(C3CCC(=O)N3Cc3csc(-c4ccccc4)n3)ccc21 (stereo not given) | > 100 | > 100 | > 100 | > 100 | > 100 | > 100 | > 100 | > 100 |  |  |  |  |  | > 100 |  |  |  |  |  | 
COc1cc(O)ccc1C(=S)SC | > 100 | > 100 |  | > 100 | 55.6 | 76.9 |  | > 100 |  |  |  |  |  | 92.2 |  |  |  | 88.4 |  | 
c1cnc2c(c1)-n1cccc1C1(CCCCC1)NN2 |  | > 100 | > 100 | > 100 | > 100 | > 100 | > 100 | > 100 |  |  |  |  |  | > 100 |  |  |  |  |  | 
Cc1cc2c(c(C(=O)O)c1C)-c1cccc(Cl)c1C2=O | > 100 | > 100 | > 100 | > 100 | > 100 | > 100 | > 100 | > 100 |  |  |  |  |  | > 100 |  |  |  |  |  | 
CN1CCCC2[C@@H]3CCC4c5nonc5CC[C@]4(C)C3CC[C@@]21C (stereo not given in full) | > 100 | > 100 |  | > 100 | > 100 | > 100 |  | > 100 |  |  |  |  |  | > 100 |  |  |  |  |  | 
O=C1c2ccccc2-c2nc3ccncc3n21 | > 100 | > 100 | > 100 | > 100 | > 100 | > 100 | > 100 | > 100 |  |  |  |  |  | > 100 |  |  |  |  |  | 
CCN(CC)C(=S)SSC(C)C | 36 |  | 30.8 | 95.8 | 18.4 | > 100 | 31.1 | 33.3 | 16.4 |  | 21.7 | 1.94 | 3.76 | 25.4 | 29.4 | 16.8 | 14.6 | 32.5 | 17.2 | 4.26 µM
Oc1ccc(Cl)cc1C=Nc1cnc2ccccc2c1 | > 100 | > 100 | 7.1 | 45.3 | 85.6 | > 100 |  | > 100 |  |  |  |  |  | 47.2 |  |  |  | > 85.7 |  | 
COc1cc(C)c2c(c1)CN1CN2Cc2cc(OC)cc(C)c21 | > 100 | > 100 | > 100 |  | > 100 | > 100 |  | > 100 |  |  |  |  |  | > 100 |  |  |  |  |  | 
Cc1ccccc1NC(=O)CSc1nnc(-c2ccc(N=Cc3ccc(Cl)cc3)cc2)o1 | > 100 | > 100 | > 100 | > 100 | > 100 | > 100 |  | > 100 |  |  |  |  |  | > 100 |  |  |  |  |  | 
Cc1cccc(N2C(=O)/C(=C/C(Cl)=C/c3ccc([N+](=O)[O-])cc3)SC2=S)c1C | 4.38 |  | > 89.5 |  | 2.04 |  | 3.54 | 2.75 | 1.84 |  |  | 0.439 | 1.02 | > 100 |  | 1.72 | 2.2 | 5.52 | 1.43 | 0.741 µM
Cn1c(COC(=O)NCCc2ccccn2)nc2c(N3CCOCC3)nc(Cl)nc21 | 4.7 | 3.63 | 12.6 | 3.28 |  | 30.4 | 3.57 | 2.57 | 2 | 1.62 | 1.53 |  | 2.41 | 8.09 | 12.3 | 1.76 | 1.62 | 3.63 | 1.27 | 0.62 µM
COc1ccc(-n2cc(-c3ccc(OC)c(OC)c3)[nH]c2=O)cc1 | > 100 | > 100 | > 100 |  | > 100 | > 100 | > 100 | > 100 | > 100 | > 100 |  | > 100 | > 100 | > 100 | > 100 | > 100 | > 100 | > 100 | > 100 | > 100 µM
COc1ccc(-c2ccc(C3CC(c4ccccc4)=NN3)o2)c([N+](=O)[O-])c1 (stereo not given) | > 100 | > 100 | 72.2 |  | > 100 |  | 58.5 | > 100 | 39.1 | 36.5 |  | 31 | 22.9 | 72.9 |  | 25.5 |  |  | 57.7 | 23.2 µM
Cc1n[nH]c2ccccc2c1=O | > 100 | > 100 |  | > 100 | > 100 | > 100 |  | > 100 |  |  |  |  |  | > 100 |  |  |  | > 100 |  | 
